Source: US20060154923A1, “N-phenyl-3-cyclopropylpyrazole-4-carbonitriles as ectoparasiticidal agents” (priority 2002, published 2006)
Read-outs that look alike come from different tables or passages of the source.

Columns and labels:
Assay type in all cases: in vivo
[1] = system: newly emerged larvae of Lucilia sericata, blowfly; experiment: Efficacy against blowfly larvae, treated paper/serum bioassay; conditions: for % Mortality 24 h / % Mortality 48 h: blowfly larvae; for mortality at 0.2 ppm / mortality at 2 ppm / mortality at 20 ppm: Lucilia sericata
Method: Evaluation of Efficacy of Test Compounds Against Blowfly Larvae
The efficacy of a test compound against newly emerged larvae of Lucilia sericata, blowfly, is evaluated using a treated paper/serum bioassay. In this evaluation, a solution of test compound in acetone is applied to a filter paper disc and the disc is allowed to dry. Bovine serum and about 20 newly emerged blowfly larvae are added to the treated paper disc and the mortality is assessed at 24 h and 48 h. The data are averaged.

[2] = system: Ctenocephatides felis, adult cat fleas; experiment: Contact activity against adult cat fleas, coated glass vial assay
Method: Evaluation of the Efficacy of Test Compounds Against Adult Cat Fleas
(§1) The contact activity of a test compound against Ctenocephatides felis, adult cat fleas, is evaluated in a coated, glass vial assay. In this evaluation, a solution of test compound in acetone is allowed to dry on the interior surface of a 20 mL vial. Ten unfed adult cat fleas are added to the treated vial and mortality is assessed periodically for up to 48 h. All treatments are replicated 2 times. The data are averaged.

[3] = system: Rhipacephalus sanguineus, adult ticks; experiment: Contact activity against adult ticks, coated glass vial assay
Method: Evaluation of the Efficacy of Test Compounds Against Adult Ticks
as §1, with “Rhipacephalus sanguineus,” for “Ctenocephatides felis,”, “ticks,” for “cat fleas,”, “coated” for “coated,”, “Five” for “Ten”, “ticks” for “cat fleas”

[4] = 24 h, read-out: % Mortality 24 h
[5] = 48 h, read-out: % Mortality 48 h

## CC1(c2nn(-c3c(Cl)cc(C(F)(F)F)cc3Cl)c(Cl)c2C#N)CC1(Br)Br (centres unmarked) [Example 20]
[1]; Conc. 0.2 ppm, 24 h
  % Mortality 24 h: 0%
[1]; Conc. 0.2 ppm, 48 h
  % Mortality 48 h: 0%
[1]; Conc. 2.0 ppm, 24 h
  % Mortality 24 h: 100%
[1]; Conc. 2.0 ppm, 48 h
  % Mortality 48 h: 100%
[1]; Conc. 20.0 ppm, 24 h
  % Mortality 24 h: 100%
[1]; Conc. 20.0 ppm, 48 h
  % Mortality 48 h: 100%
[2]; Conc. 2 ug/cm2, 4 h
  % Mortality 4 h: 20%
[2]; Conc. 2 ug/cm2, 24 h
  % Mortality 24 h: 100%
[3]; Conc. 0.78 ug/cm2, 4 h
  % Mortality 4 h: 0%
[3]; Conc. 0.78 ug/cm2, 24 h
  % Mortality 24 h: 20%
[3]; Conc. 7.80 ug/cm2, 4 h
  % Mortality 4 h: 20%
[3]; Conc. 7.80 ug/cm2, 24 h
  % Mortality 24 h: 50%

## CC1(c2nn(-c3c(Cl)cc(C(F)(F)F)cc3Cl)c(N)c2C#N)CC1(Br)Br (centres unmarked) [Example 21]
[1]; Conc. 0.2 ppm, 24 h
  % Mortality 24 h: 0%
[1]; Conc. 0.2 ppm, 48 h
  % Mortality 48 h: 0%
[1]; Conc. 2.0 ppm, 24 h
  % Mortality 24 h: 95%
[1]; Conc. 2.0 ppm, 48 h
  % Mortality 48 h: 100%
[1]; Conc. 20.0 ppm, 24 h
  % Mortality 24 h: 90%
[1]; Conc. 20.0 ppm, 48 h
  % Mortality 48 h: 100%
[2]; Conc. 2 ug/cm2, 4 h
  % Mortality 4 h: 0%
[2]; Conc. 2 ug/cm2, 24 h
  % Mortality 24 h: 0%
[3]; Conc. 0.78 ug/cm2, 4 h
  % Mortality 4 h: 10%
[3]; Conc. 0.78 ug/cm2, 24 h
  % Mortality 24 h: 10%
[3]; Conc. 7.80 ug/cm2, 4 h
  % Mortality 4 h: 0%
[3]; Conc. 7.80 ug/cm2, 24 h
  % Mortality 24 h: 40%

## CC1(c2nn(-c3c(Cl)cc(C(F)(F)F)cc3Cl)c(Br)c2C#N)CC1(Br)Br (centres unmarked) [Example 22]
[1]; Conc. 0.2 ppm, 24 h
  % Mortality 24 h: 0%
[1]; Conc. 0.2 ppm, 48 h
  % Mortality 48 h: 0%
[1]; Conc. 2.0 ppm, 24 h
  % Mortality 24 h: 100%
[1]; Conc. 2.0 ppm, 48 h
  % Mortality 48 h: 100%
[1]; Conc. 20.0 ppm, 24 h
  % Mortality 24 h: 100%
[1]; Conc. 20.0 ppm, 48 h
  % Mortality 48 h: 100%
[2]; Conc. 2 ug/cm2, 4 h
  % Mortality 4 h: 0%
[2]; Conc. 2 ug/cm2, 24 h
  % Mortality 24 h: 100%
[3]; Conc. 0.78 ug/cm2, 4 h
  % Mortality 4 h: 20%
[3]; Conc. 0.78 ug/cm2, 24 h
  % Mortality 24 h: 30%
[3]; Conc. 7.80 ug/cm2, 4 h
  % Mortality 4 h: 0%
[3]; Conc. 7.80 ug/cm2, 24 h
  % Mortality 24 h: 60%

## CC1(c2nn(-c3c(Cl)cc(C(F)(F)F)cc3Cl)c(Br)c2C#N)CC1(Cl)Cl (centres unmarked) [Example 29]
[1]; Conc. 0.2 ppm, 24 h
  % Mortality 24 h: 15%
[1]; Conc. 0.2 ppm, 48 h
  % Mortality 48 h: 15%
[1]; Conc. 2.0 ppm, 24 h
  % Mortality 24 h: 100%
[1]; Conc. 2.0 ppm, 48 h
  % Mortality 48 h: 100%
[1]; Conc. 20.0 ppm, 24 h
  % Mortality 24 h: 100%
[1]; Conc. 20.0 ppm, 48 h
  % Mortality 48 h: 100%
[2]; Conc. 0.02 ug/cm2, 4 h
  % Mortality 4 h: 10%
[2]; Conc. 0.02 ug/cm2, 24 h
  % Mortality 24 h: 100%
[2]; Conc. 0.2 ug/cm2, 4 h
  % Mortality 4 h: 20%
[2]; Conc. 0.2 ug/cm2, 24 h
  % Mortality 24 h: 100%
[2]; Conc. 2 ug/cm2, 4 h
  % Mortality 4 h: 50%
[2]; Conc. 2 ug/cm2, 24 h
  % Mortality 24 h: 100%
[3]; Conc. 0.78 ug/cm2, 4 h
  % Mortality 4 h: 0%
[3]; Conc. 0.78 ug/cm2, 24 h
  % Mortality 24 h: 40%
[3]; Conc. 7.80 ug/cm2, 4 h
  % Mortality 4 h: 20%
[3]; Conc. 7.80 ug/cm2, 24 h
  % Mortality 24 h: 60%

## CC1(c2nn(-c3c(Cl)cc(C(F)(F)F)cc3Cl)c(I)c2C#N)CC1(Cl)Cl (centres unmarked) [Example 31]
[1]; Conc. 0.2 ppm, 24 h
  % Mortality 24 h: 0%
[1]; Conc. 0.2 ppm, 48 h
  % Mortality 48 h: 0%
[1]; Conc. 2.0 ppm, 24 h
  % Mortality 24 h: 95%
[1]; Conc. 2.0 ppm, 48 h
  % Mortality 48 h: 100%
[1]; Conc. 20.0 ppm, 24 h
  % Mortality 24 h: 97%
[1]; Conc. 20.0 ppm, 48 h
  % Mortality 48 h: 100%
[2]; Conc. 2 ug/cm2, 4 h
  % Mortality 4 h: 20%
[2]; Conc. 2 ug/cm2, 24 h
  % Mortality 24 h: 100%
[3]; Conc. 0.78 ug/cm2, 4 h
  % Mortality 4 h: 10%
[3]; Conc. 0.78 ug/cm2, 24 h
  % Mortality 24 h: 20%
[3]; Conc. 7.80 ug/cm2, 4 h
  % Mortality 4 h: 50%
[3]; Conc. 7.80 ug/cm2, 24 h
  % Mortality 24 h: 50%

## CN(C)c1c(C#N)c(C2(C)CC2(Cl)Cl)nn1-c1c(Cl)cc(C(F)(F)F)cc1Cl (centres unmarked) [Example 32]
[1]; Conc. 0.2 ppm, 24 h
  % Mortality 24 h: 0%
[1]; Conc. 0.2 ppm, 48 h
  % Mortality 48 h: 0%
[1]; Conc. 2.0 ppm, 24 h
  % Mortality 24 h: 0%
[1]; Conc. 2.0 ppm, 48 h
  % Mortality 48 h: 0%
[1]; Conc. 20.0 ppm, 24 h
  % Mortality 24 h: 91%
[1]; Conc. 20.0 ppm, 48 h
  % Mortality 48 h: 96%
[2]; Conc. 2 ug/cm2, 4 h
  % Mortality 4 h: 0%
[2]; Conc. 2 ug/cm2, 24 h
  % Mortality 24 h: 100%
[3]; Conc. 0.78 ug/cm2, 4 h
  % Mortality 4 h: 0%
[3]; Conc. 0.78 ug/cm2, 24 h
  % Mortality 24 h: 60%
[3]; Conc. 7.80 ug/cm2, 4 h
  % Mortality 4 h: 0%
[3]; Conc. 7.80 ug/cm2, 24 h
  % Mortality 24 h: 30%

## N#Cc1nn(-c2c(Cl)cc(C(F)(F)F)cc2Cl)c(N)c1[S+]([O-])C(F)(F)F (centres unmarked) [Standard, Fipronil, reference compound]
[1]; [4]
  mortality at 0.2 ppm: 0%
  mortality at 2 ppm: 100%
  mortality at 20 ppm: 100%
[1]; [5]
  mortality at 0.2 ppm: 100%
  mortality at 2 ppm: 100%
  mortality at 20 ppm: 100%
[2]; Conc. 0.02 ug/cm2, 4 h
  % Mortality 4 h: 0%
[2]; Conc. 0.02 ug/cm2, 24 h
  % Mortality 24 h: 100%
[2]; Conc. 0.2 ug/cm2, 4 h
  % Mortality 4 h: 10%
[2]; Conc. 0.2 ug/cm2, 24 h
  % Mortality 24 h: 100%
[2]; Conc. 2 ug/cm2, 4 h
  % Mortality 4 h: 30%
[2]; Conc. 2 ug/cm2, 24 h
  % Mortality 24 h: 100%
[3]; Conc. 0.78 ug/cm2, 4 h
  % Mortality 4 h: 90%
[3]; Conc. 0.78 ug/cm2, 24 h
  % Mortality 24 h: 100%
[3]; Conc. 7.80 ug/cm2, 4 h
  % Mortality 4 h: 100%
[3]; Conc. 7.80 ug/cm2, 24 h
  % Mortality 24 h: 100%
